# Experimental data as given in patent US20040167181A1, “Methods of treating conditions associated with an Edg-3 receptor” (priority 2003, published 2004).
# “Also recorded” adds a separate entry of the source.
# Tests used:
# Edg-7 = molecular target: T1, Edg-7 (Homo sapiens, UniProt Q9UBY5); experiment: LPA-stimulated calcium increases in HTC cells expressing Edg-7; assay type: cell-based; conditions: concentrations as high as 10 μM
# T1 construct: expressed in transfected cells; host or cells: HTC (rat hepatoma) cells
# T1 sequence (Q9UBY5 1-353): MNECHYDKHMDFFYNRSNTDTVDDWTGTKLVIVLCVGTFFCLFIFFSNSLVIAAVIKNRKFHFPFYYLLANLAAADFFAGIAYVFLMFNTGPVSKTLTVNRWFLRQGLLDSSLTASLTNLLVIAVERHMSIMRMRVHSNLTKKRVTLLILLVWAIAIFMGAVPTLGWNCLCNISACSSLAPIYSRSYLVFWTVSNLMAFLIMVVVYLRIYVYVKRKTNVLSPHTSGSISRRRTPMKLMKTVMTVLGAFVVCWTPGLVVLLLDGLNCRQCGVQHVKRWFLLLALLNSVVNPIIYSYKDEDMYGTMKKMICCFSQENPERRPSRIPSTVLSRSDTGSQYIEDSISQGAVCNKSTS
# Edg-6 = molecular target: T2, Edg-6 (Homo sapiens, UniProt O95977); experiment: S1P-stimulated calcium increases in HTC cells expressing Edg-6; assay type: cell-based; conditions: concentrations as high as 10 μM
# T2 construct: expressed in transfected cells; host or cells: HTC (rat hepatoma) cells
# T2 sequence (O95977 1-384): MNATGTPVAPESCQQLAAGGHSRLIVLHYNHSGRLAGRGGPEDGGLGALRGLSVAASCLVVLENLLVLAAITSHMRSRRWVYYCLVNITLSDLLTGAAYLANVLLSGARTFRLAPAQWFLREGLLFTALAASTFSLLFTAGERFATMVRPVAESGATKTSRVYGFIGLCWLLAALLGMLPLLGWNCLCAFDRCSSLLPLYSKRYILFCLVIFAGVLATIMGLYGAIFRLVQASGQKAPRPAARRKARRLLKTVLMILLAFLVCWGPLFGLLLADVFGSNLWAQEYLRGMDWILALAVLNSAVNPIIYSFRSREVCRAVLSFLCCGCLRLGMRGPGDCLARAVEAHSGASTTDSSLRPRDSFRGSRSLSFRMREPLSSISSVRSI
# Adrenergic β = experiment: Radioligand binding assay, Adrenergic β; conditions: Wistar rat brain; 0.25 nM 3H Dihydroaplenolol; significance criteria ≦50% of max stimulation or inhibition
# Description: (§1) In order to test the selectivity of compounds, various radioligand binding assays were performed using numerous non-Edg receptor targets as listed below.
# (§2) A radioligand binding assay was performed using adrenergic α1 according to the method of Greengrass and Bremner 1979, Eur. J. Pharmacol. 55:323-326. A radioligand binding assay was performed using adrenergic α2 according to the method of Boyajian and Leslie, 1987, J. Pharmacol. Exp. Ther. 241:1092-1098. A radioligand binding assay was performed using adrenergic β according to the method of Feve et al., 1994, Proc. Natl. Acad. Sci. USA 91:5677-5681. A radioligand binding assay was performed using angiotensin AT2 according to the method of Whitebread et al., 1991, Biochem. Biophys. Res. Comm. 181:1365-1371. A radioligand binding assay was performed using calcium channel Type L, dihydropyridine according to the method of Ehlert et al., 1982, Life Sci. 30:2191-2202. A radioligand binding assay was performed using dopamine D2L according to the method of Bunzo et al., 1988, Nature 336:783-787. A radioligand binding assay was performed using endothelin ETA according to the method of Mihara et al., 1994, J. Pharmacol. Exp Ther. 268:1122-1127. A radioligand binding assay was performed using histamine H1 Central according to the method of Hill et al., 1978, J. Neurochem. 31:997-1004. […]
# (§3) Quantitation Method: Radioligand Binding […]
# [1] = test system: Serotonin 5-HT1, non-selective; experiment: Radioligand binding assay, Serotonin 5-HT1, non-selective; conditions: Wistar rat cerebral cortex; 2 nM 3H Serotonin (5-HT) Trifluoroacetate; significance criteria ≦50% of max stimulation or inhibition
# Description: as §1, §2, §3
# Edg-8 = molecular target: T3, Edg-8 (Homo sapiens, UniProt Q9H228); experiment: S1P-stimulated calcium increases in HTC cells expressing Edg-8; assay type: cell-based; conditions: concentrations as high as 10 μM
# T3 construct: expressed in transfected cells; host or cells: HTC (rat hepatoma) cells
# [2] = test system: Calcium Channel Type L, Dihydropyridine; experiment: Radioligand binding assay, Calcium Channel Type L, Dihydropyridine; conditions: Wistar Rat cerebral cortex; 0.1 nM 3H Nitrendipine; significance criteria ≦50% of max stimulation or inhibition
# Description: as §1, §2, §3
# human Edg-3 receptors = molecular target: T4, human Edg-3 receptors (Homo sapiens, UniProt Q99500); experiment: Calcium response in HTC cells expressing human Edg-3 receptors; assay type: cell-based; conditions: HTC cells expressing human Edg-3 receptors (also tested in NIH 3T3 cell lines that naturally express Edg-3); FIG. 1
# T4 construct: expressed in transfected cells; host or cells: HTC (rat hepatoma) cells
# Source text: Specific assays for Edg-3 receptor activity are known to those of skill in the art. For example, cells expressing Edg-3 receptors can be contacted with a membrane-permeant calcium sensitive dye such as Fluo-4 AM or a proprietary calcium dye loading kit (e.g., FLIPR Calcium Assay kit, Molecular Devices, Sunnyvale, Calif.). Intracellular calcium is capable of binding to the dye and emitting fluorescent radiation when illuminated at the appropriate wavelength. The cells can thus be illuminated an appropriate wavelength for the dye and any emitting light can be captured by a cooled CCD camera. Changes in fluorescence indicate changes in intracellular calcium resulting from the activation of an Edg-3 receptor. Such changes can be measured advantageously in whole cells in “real-time” (Berridge et al., Nature Reviews 2000, 1:11-21).
# The compounds were tested in HTC cells expressing human Edg-3 receptors, as well as in NIH 3T3 cell lines that naturally express Edg-3 receptors. […] The compounds are tested in this recombinant system first, and subsequently tested in cell lines expressing Edg-3 (in addition to other Edg receptors).
# Edg-1 = molecular target: T5, Edg-1 (Homo sapiens, UniProt P21453); experiment: S1P-stimulated calcium increases in HTC cells expressing Edg-1; assay type: cell-based; conditions: concentrations as high as 10 μM
# T5 construct: expressed in transfected cells; host or cells: HTC (rat hepatoma) cells
# Edg-4 = molecular target: T6, Edg-4 (Homo sapiens, UniProt Q9HBW0); experiment: LPA-stimulated calcium increases in HTC cells expressing Edg-4; assay type: cell-based; conditions: concentrations as high as 10 μM
# T6 construct: expressed in transfected cells; host or cells: HTC (rat hepatoma) cells
# [3] = test system: Adrenergic α1, non-selective; experiment: Radioligand binding assay, Adrenergic α1, non-selective; conditions: Wistar Rat brain; 0.25 nM 3H Prazosin; significance criteria ≦50% of max stimulation or inhibition
# Description: as §1, §2, §3
# Dopamine D2L = molecular target: T7, Dopamine D2L (Homo sapiens, UniProt P14416); experiment: Radioligand binding assay, Dopamine D2L; conditions: Human recombinant CHO cells; 0.16 nM 3H Spiperone; significance criteria ≦50% of max stimulation or inhibition
# T7 construct: expressed in transfected cells; host or cells: CHO cells
# Description: as §1, §2, §3
# Endothelin ETA = molecular target: T8, Endothelin ETA (Homo sapiens, UniProt P25101); experiment: Radioligand binding assay, Endothelin ETA; conditions: Human recombinant CHO cells; 0.03 nM 125 Endothelin; significance criteria ≦50% of max stimulation or inhibition
# T8 construct: expressed in transfected cells; host or cells: CHO cells
# T8 sequence (P25101 21-427): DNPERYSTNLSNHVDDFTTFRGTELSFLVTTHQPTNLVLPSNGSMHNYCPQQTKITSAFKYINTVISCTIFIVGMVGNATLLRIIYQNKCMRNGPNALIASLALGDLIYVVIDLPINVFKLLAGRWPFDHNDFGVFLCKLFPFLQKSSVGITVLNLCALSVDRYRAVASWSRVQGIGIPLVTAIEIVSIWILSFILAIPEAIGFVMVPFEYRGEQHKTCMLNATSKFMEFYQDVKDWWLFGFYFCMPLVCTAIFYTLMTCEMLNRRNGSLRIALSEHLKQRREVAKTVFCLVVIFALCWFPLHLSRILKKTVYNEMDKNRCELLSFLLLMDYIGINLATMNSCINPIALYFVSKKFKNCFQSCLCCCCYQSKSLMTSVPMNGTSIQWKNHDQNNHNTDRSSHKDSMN
# Description: as §1, §2, §3
# Edg-2 = molecular target: T9, Edg-2 (Homo sapiens, UniProt Q92633); experiment: LPA-stimulated calcium increases in HTC cells expressing Edg-2; assay type: cell-based; conditions: concentrations as high as 10 μM
# T9 construct: expressed in transfected cells; host or cells: HTC (rat hepatoma) cells
# Histamine H1, Central = molecular target: T10, Histamine H1, Central (Cavia porcellus, UniProt P31389); experiment: Radioligand binding assay, Histamine H1, Central; conditions: Guinea pig cerebellum; 1.75 nM 3H Pyrilamine; significance criteria ≦50% of max stimulation or inhibition
# T10 construct: from tissue; host or cells: Guinea pig cerebellum
# Description: as §1, §2, §3
# [4] = test system: Muscarinic non-selective, Central; assay type: binding; conditions: Wistar rat cerebral cortex; 0.29 nM 3H Quinuclidinyl benzilate; significance criteria ≦50% of max stimulation or inhibition
# Adrenergic α2 = experiment: Radioligand binding assay, Adrenergic α2; conditions: Wistar rat cerebral cortex; 0.7 nM 3H Rauwolscine; significance criteria ≦50% of max stimulation or inhibition
# Description: as §1, §2, §3
# Edg-5 = molecular target: T11, Edg-5 (Homo sapiens, UniProt O95136); experiment: S1P-stimulated calcium increases in HTC cells expressing Edg-5; assay type: cell-based; conditions: concentrations as high as 10 μM
# T11 construct: expressed in transfected cells; host or cells: HTC (rat hepatoma) cells
# Angiotensin AT2 = molecular target: T12, Angiotensin AT2 (Homo sapiens, UniProt P50052); experiment: Radioligand binding assay, Angiotensin AT2; conditions: Human recombinant Hela cells; 0.025 nM 125I CGP-42112A; significance criteria ≦50% of max stimulation or inhibition
# T12 construct: expressed in transfected cells; host or cells: Hela cells
# T12 sequence (P50052 1-363): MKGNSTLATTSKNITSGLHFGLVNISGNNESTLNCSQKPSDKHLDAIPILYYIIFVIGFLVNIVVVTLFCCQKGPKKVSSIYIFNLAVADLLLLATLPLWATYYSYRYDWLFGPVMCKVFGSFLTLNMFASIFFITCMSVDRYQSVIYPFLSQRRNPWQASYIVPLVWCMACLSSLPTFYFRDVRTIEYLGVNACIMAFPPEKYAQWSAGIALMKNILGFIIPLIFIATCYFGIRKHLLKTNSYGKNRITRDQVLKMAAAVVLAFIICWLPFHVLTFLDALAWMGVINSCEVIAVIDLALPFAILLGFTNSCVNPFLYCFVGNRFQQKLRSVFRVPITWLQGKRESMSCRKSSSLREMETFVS
# Description: as §1, §2, §3
# T4 sequence (Q99500 whole entry): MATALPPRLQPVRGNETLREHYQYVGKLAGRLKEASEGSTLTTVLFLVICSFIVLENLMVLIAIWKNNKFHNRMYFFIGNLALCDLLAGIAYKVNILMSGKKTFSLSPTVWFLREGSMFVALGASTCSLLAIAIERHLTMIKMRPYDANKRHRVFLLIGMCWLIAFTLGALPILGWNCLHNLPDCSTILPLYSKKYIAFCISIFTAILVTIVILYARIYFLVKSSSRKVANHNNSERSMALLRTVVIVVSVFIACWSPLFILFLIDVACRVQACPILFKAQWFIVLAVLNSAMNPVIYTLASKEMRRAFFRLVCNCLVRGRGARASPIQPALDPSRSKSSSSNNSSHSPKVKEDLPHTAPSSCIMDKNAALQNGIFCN
# T10 sequence (P31389 whole entry): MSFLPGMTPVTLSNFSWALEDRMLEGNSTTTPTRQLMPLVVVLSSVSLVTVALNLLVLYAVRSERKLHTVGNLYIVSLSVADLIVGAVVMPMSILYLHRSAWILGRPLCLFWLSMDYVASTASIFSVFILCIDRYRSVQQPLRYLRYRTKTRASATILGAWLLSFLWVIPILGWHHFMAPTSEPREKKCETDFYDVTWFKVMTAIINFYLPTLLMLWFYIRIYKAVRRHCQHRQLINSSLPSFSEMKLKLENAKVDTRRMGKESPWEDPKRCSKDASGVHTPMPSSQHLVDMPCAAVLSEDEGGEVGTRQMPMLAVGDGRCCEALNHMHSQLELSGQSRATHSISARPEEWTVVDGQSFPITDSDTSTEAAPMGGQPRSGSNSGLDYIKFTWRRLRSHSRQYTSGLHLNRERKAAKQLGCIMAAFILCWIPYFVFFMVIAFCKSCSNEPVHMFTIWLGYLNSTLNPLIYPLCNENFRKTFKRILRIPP
# T9 sequence (Q92633 whole entry): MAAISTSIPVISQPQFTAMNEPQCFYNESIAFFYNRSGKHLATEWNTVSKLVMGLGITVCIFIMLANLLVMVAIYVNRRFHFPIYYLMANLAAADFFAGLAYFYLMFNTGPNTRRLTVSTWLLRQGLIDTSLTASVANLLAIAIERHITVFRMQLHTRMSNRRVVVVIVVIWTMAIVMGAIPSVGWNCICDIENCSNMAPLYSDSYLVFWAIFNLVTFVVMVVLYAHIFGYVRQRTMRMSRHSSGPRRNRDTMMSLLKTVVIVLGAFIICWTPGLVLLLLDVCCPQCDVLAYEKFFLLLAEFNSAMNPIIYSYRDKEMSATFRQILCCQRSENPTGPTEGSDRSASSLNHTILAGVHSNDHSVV
# T11 sequence (O95136 whole entry, species assumed): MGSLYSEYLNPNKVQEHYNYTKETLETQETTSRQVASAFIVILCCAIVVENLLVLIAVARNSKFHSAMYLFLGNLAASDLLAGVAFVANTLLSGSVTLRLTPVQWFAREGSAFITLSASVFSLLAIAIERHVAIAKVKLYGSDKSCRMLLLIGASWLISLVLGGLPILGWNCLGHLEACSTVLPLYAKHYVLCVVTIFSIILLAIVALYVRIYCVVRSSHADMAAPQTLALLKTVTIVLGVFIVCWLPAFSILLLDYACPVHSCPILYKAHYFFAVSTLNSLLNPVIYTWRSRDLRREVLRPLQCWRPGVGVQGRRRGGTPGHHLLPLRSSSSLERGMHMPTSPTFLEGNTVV
# T5 sequence (P21453 whole entry): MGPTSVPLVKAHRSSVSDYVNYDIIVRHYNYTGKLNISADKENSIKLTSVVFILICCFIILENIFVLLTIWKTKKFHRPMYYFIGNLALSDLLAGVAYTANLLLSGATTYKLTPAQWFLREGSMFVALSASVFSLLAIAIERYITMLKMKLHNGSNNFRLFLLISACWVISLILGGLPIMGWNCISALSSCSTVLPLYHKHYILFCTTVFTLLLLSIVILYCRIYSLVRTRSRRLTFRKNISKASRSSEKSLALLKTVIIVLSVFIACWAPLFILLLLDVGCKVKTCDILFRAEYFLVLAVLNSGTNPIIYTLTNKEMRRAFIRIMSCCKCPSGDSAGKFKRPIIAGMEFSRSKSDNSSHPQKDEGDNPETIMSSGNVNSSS
# T7 sequence (P14416 whole entry): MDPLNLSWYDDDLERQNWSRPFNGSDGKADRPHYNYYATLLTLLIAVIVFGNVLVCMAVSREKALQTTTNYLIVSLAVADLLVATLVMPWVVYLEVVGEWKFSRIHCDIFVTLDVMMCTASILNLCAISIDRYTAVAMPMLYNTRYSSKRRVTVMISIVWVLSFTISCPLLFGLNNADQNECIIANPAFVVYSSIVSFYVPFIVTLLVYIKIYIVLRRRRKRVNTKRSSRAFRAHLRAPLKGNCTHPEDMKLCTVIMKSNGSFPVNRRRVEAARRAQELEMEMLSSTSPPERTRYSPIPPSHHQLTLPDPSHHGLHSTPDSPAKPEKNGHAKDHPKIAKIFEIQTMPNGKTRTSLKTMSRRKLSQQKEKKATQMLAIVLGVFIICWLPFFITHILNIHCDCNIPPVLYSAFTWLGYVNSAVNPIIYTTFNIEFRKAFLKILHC
# T3 sequence (Q9H228 whole entry, species assumed): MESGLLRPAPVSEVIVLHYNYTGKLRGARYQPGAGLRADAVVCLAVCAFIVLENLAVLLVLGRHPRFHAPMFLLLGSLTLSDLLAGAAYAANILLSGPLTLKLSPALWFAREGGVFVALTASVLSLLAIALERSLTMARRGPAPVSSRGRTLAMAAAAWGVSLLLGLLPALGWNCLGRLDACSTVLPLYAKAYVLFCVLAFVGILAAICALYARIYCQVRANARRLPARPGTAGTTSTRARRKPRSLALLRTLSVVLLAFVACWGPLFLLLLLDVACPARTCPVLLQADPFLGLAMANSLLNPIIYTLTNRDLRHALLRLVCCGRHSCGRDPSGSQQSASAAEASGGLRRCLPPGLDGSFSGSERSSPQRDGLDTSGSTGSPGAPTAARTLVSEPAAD
# T6 sequence (Q9HBW0 whole entry, species assumed): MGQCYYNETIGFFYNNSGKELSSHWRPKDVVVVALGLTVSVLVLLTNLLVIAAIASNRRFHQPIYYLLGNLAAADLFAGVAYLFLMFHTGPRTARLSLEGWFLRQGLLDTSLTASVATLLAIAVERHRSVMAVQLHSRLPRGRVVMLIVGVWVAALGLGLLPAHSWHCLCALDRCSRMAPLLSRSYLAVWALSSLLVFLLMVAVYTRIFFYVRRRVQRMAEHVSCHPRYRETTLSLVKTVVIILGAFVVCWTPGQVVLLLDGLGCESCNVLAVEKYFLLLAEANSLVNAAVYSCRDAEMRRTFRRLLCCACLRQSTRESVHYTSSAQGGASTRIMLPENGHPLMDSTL
compound,measurement,setting,value
Cc1c(-c2ccccc2)nc2ccccc2c1C(=O)NCc1ccc(F)cc1 [Compound 101],inhibition of LPA-stimulated calcium increases,Edg-7,did not inhibit
same,inhibition of S1P-stimulated calcium increases,Edg-6,did not inhibit
same,activity in radioligand binding assay,Adrenergic β,no significant activity
same,activity in radioligand binding assay,[1],no significant activity
same,inhibition of S1P-stimulated calcium increases,Edg-8,did not inhibit
same,activity in radioligand binding assay,[2],no significant activity
same,inhibition of Edg-3 stimulated SP1 responses,human Edg-3 receptors,demonstrate inhibition; also recorded: specifically inhibit
same,inhibition of S1P-stimulated calcium increases,Edg-1,did not inhibit
same,inhibition of LPA-stimulated calcium increases,Edg-4,did not inhibit
same,activity in radioligand binding assay,[3],no significant activity
same,activity in radioligand binding assay,Dopamine D2L,no significant activity
same,activity in radioligand binding assay,Endothelin ETA,no significant activity
same,inhibition of LPA-stimulated calcium increases,Edg-2,did not inhibit
same,activity in radioligand binding assay,"Histamine H1, Central",no significant activity
same,activity in radioligand binding assay,[4],no significant activity
same,activity in radioligand binding assay,Adrenergic α2,no significant activity
same,inhibition of S1P-stimulated calcium increases,Edg-5,did not inhibit
same,activity in radioligand binding assay,Angiotensin AT2,no significant activity
